{"source": "ChEMBL document CHEMBL1201862", "about": "“PubChem BioAssay data set” (2004)", "key": {"[1]": {"test": "inhibitors of firefly luciferase expression or activity, dose response, H4 neuroglioma cells, luminescence (AID 1990)", "assay_type": "functional, cell-based"}, "[2]": {"test": "Luminescence Cell-Based Dose Response HTS to Identify Inhibitors of 5'UTR Stem-Loop Driven Prion Protein mRNA Translation in H4 Neuroglioblastoma Cells. [Related pubchem assays: 1827 (Project Summary), 1813 (Primary HTS)]", "assay_type": "functional"}, "[3]": {"test": "inhibitors of SNCA 5'UTR-driven reporter translation, confirmation, H4 neuroglioma cells, luminescence (AID 1988)", "assay_type": "functional, cell-based"}, "[4]": {"biological_target": "T1, Rac GTPase-activating protein 1 (Homo sapiens, UniProt Q9H0H5)", "T1 sequence (Q9H0H5 whole entry)": "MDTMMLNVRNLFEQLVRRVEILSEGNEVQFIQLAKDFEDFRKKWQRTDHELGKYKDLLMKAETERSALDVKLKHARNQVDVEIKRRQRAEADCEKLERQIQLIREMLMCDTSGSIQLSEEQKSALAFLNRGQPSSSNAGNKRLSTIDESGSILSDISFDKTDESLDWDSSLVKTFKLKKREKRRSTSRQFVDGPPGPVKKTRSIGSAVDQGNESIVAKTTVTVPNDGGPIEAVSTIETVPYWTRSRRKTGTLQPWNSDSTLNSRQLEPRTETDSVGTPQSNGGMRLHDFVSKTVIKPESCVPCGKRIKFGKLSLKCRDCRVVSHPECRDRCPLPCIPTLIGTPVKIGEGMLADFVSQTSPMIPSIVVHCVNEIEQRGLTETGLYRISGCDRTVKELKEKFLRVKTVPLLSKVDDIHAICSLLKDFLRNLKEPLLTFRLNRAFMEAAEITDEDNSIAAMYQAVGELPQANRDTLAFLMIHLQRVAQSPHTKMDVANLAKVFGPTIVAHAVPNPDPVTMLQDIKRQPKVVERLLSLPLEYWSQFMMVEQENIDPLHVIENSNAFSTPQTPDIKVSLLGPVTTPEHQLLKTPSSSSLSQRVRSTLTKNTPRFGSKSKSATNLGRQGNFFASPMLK", "test": "MgcRacGAP GTPase-activating activity inhibitors, confirmation, biochemical, ADP Hunter fluorescence, primary and confirmatory (AID 624330)", "assay_type": "functional"}, "Cytochrome P450 2C19": {"biological_target": "Cytochrome P450 2C19 (Homo sapiens, UniProt P33261)", "sequence (P33261 whole entry)": "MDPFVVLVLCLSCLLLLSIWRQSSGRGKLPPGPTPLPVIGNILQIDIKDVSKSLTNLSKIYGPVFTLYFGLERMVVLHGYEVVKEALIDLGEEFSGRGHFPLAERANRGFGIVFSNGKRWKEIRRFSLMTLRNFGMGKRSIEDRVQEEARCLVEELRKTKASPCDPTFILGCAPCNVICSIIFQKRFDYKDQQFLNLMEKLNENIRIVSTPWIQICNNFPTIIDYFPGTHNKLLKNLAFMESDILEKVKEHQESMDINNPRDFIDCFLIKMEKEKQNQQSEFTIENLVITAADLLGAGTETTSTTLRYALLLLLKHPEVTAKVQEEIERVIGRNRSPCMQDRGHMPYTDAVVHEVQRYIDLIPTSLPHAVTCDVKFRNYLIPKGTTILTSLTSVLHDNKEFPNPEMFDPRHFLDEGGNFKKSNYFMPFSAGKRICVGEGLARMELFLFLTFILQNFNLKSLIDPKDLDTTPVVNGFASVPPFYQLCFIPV", "test": "Cytochrome panel assay with activity outcomes. Panel member name: p450-cyp2c19 Compounds with AC50 equal or less than 10 uM are considered active", "assay_type": "functional", "conditions": "read-out: AC50"}, "Cytochrome P450 2C9": {"biological_target": "Cytochrome P450 2C9 (Homo sapiens, UniProt P11712)", "sequence (P11712 whole entry)": "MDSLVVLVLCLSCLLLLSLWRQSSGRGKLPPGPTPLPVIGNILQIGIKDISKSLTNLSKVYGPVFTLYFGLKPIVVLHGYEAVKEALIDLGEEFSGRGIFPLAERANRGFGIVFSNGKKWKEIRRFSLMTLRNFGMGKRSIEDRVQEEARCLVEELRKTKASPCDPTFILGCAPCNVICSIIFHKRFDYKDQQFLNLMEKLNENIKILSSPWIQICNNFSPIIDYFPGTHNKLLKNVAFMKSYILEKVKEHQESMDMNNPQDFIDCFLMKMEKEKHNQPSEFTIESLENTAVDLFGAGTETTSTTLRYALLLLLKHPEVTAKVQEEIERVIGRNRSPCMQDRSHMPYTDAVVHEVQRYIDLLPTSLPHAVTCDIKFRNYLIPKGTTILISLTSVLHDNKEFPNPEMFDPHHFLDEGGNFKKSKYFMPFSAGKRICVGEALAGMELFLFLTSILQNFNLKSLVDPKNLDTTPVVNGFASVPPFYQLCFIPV"}, "INS1": {"test_system": "INS1", "test": "beta cell apoptosis inhibitors, cytokine rescue, dose response, luminescence, retest (AID 449756);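 note: cell death triggered by IL-1 beta plus TNF-alpha plus IFN-gamma mixture; protective hits raise ATP signal compared with cytokine alone wells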", "assay_type": "functional, cell-based", "conditions": "Rattus norvegicus"}, "[5]": {"test": "HEp-2 cell cytotoxicity, dose response, cytotoxicity control for RSV inhibitor project, HTS (AID 2410)", "assay_type": "functional", "conditions": "human respiratory syncytial virus"}, "[6]": {"test": "Luminescence Cell-Based Dose Retest to Confirm Inhibitors of Cancer Stem Cells. [Related pubchem assays (depositor defined):AID2717, AID2721]", "assay_type": "functional", "conditions": "Homo sapiens"}, "[7]": {"test_system": "Streptococcus sp. 'group A'", "test": "growth inhibition of control SK(-) GAS strain, dose response, counter-screen for streptokinase expression inhibitor project, luminescence, kanamycin, BacTiterGlo, confirmation (AID 1900)", "assay_type": "functional, organism-based"}, "Streptokinase A": {"biological_target": "T2, Streptokinase A (Streptococcus pyogenes serotype M1, UniProt P10520)", "T2 sequence (P10520 whole entry)": "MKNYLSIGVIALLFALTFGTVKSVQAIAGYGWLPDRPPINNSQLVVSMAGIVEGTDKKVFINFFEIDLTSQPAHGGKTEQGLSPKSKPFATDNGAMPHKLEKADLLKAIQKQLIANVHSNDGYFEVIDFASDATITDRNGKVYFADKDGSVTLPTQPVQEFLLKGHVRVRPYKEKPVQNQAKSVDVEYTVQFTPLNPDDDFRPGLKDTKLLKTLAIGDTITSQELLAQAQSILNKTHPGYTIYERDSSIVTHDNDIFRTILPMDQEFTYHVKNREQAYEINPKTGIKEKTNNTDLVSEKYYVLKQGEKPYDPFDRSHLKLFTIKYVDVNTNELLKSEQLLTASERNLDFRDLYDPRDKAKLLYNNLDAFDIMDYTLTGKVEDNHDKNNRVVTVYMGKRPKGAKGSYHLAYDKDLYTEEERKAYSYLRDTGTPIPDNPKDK", "test": "S. pyogenes streptokinase expression inhibitors, potency, dose response, plasminogen activation absorbance, OD405 (AID 1914);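 note: secreted streptokinase activity via plasminogen activation per viability signal from cell pellet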", "assay_type": "functional, Streptococcus pyogenes M1 GAS"}, "Streptococcus": {"test_system": "Streptococcus", "test": "Group A Streptococcus viability loss, dose response, counter-screen for streptokinase expression inhibitor project, luminescence, BacTiterGlo (AID 1915);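 note: potency for reduction of bacterial viability or growth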", "assay_type": "functional, organism-based"}, "[8]": {"test": "NIH-3T3 fibroblast cytotoxicity, dose response, cytotoxicity control, cell-based, fluorescence, Alamar Blue, secondary assay (AID 2327);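 note: NIH-3T3 mouse fibroblasts cultured with fluconazole at 8 µg/mL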", "assay_type": "functional"}, "[9]": {"test": "inhibitors of intracellular T. cruzi replication, confirmation, NIH3T3 host cells, beta-gal luminescence (AID 2044);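 note: luminescent beta-galactosidase reporter signal from transgenic T. cruzi replicating inside host cells; inhibitors lower the luminescence signal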", "assay_type": "functional, cell-based"}, "[10]": {"test": "cytotoxicity toward NIH3T3 fibroblasts, dose response, counter-screen, cell-based, ATP luminescence, mouse fibroblasts (AID 2010);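 note: cells exposed to compound for about 90 hours before reading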", "assay_type": "functional"}, "[11]": {"test": "C. albicans growth with fluconazole, confirmation, fluorescence, retest (AID 2467)", "assay_type": "functional, cell-based"}}, "note": "Calls of active or inactive are those of the source.", "data": [{"smiles": "COc1cccc(C(=O)Nc2cccc(OCC(=O)O)c2)c1", "values": [{"measurement": "EC50", "setting": "[1]", "result": "> 120 µM (not active)"}, {"measurement": "EC50", "setting": "[2]", "result": "> 120 µM (not active)"}, {"measurement": "EC50", "setting": "[3]", "result": "25.9 µM (active)"}]}, {"smiles": "O=C(Nc1cc(Br)c(O)c(Br)c1)c1cccc(NC(=O)c2ccco2)c1", "values": [{"measurement": "IC50", "setting": "[4]", "result": "95.2 µM (active)"}]}, {"smiles": "COC(=O)C1=C(CSc2nc3ccccc3o2)NC(=O)NC1c1cc(C)ccc1C", "note": "(stereo unspecified)", "values": [{"measurement": "EC50", "setting": "[1]", "result": "> 120 µM (not active)"}, {"measurement": "EC50", "setting": "[2]", "result": "> 120 µM (not active)"}, {"measurement": "EC50", "setting": "[3]", "result": "> 120 µM (not active)"}]}, {"smiles": "Cc1cccc(NC(=O)c2ccccc2OCC(=O)c2ccc(F)cc2)c1", "values": [{"measurement": "EC50", "setting": "[1]", "result": "> 120 µM (not active)"}, {"measurement": "EC50", "setting": "[2]", "result": "> 120 µM (not active)"}, {"measurement": "EC50", "setting": "[3]", "result": "> 120 µM (not active)"}]}, {"smiles": "CCCCN1C(=O)/C(=C/c2ccc(N(C)C)cc2)C(=O)N(Cc2ccco2)C1=O", "values": [{"measurement": "AC50", "setting": "Cytochrome P450 2C19", "result": "31.6 µM (inconclusive)"}, {"measurement": "AC50", "setting": "Cytochrome P450 2C9", "result": "35.5 µM (inconclusive)"}]}, {"smiles": "CN(C)S(=O)(=O)c1cccc(NC2=NN=C(c3ccccc3)CS2)c1", "values": [{"measurement": "AC50", "setting": "INS1", "result": "7.27 µM (active)"}]}, {"smiles": "COc1cccc(Nc2nc(-c3cccs3)nc3ccccc23)c1", "values": [{"measurement": "CC50", "setting": "[5]", "result": "13.9 µM (active)"}, {"measurement": "AC50", "setting": "[6]", "result": "3.42 µM (active)"}]}, {"smiles": "CN(C)S(=O)(=O)c1ccc(N2C(=O)CC2(/C=C/c2ccccc2)C(=O)NC2CCCC2)cc1", "note": "(stereo unspecified)", "values": [{"measurement": "EC50", "setting": "[1]", "result": "> 120 µM (not active)"}, {"measurement": "EC50", "setting": "[2]", "result": "> 120 µM (not active)"}, {"measurement": "EC50", "setting": "[3]", "result": "> 120 µM (not active)"}]}, {"smiles": "COc1ccccc1N1CCN(S(=O)(=O)CCNC(=O)c2cc(OC)c(OC)c(OC)c2)CC1", "values": [{"measurement": "EC50", "setting": "[1]", "result": "> 120 µM (not active)"}, {"measurement": "EC50", "setting": "[2]", "result": "> 120 µM (not active)"}, {"measurement": "EC50", "setting": "[3]", "result": "10.6 µM (active)"}]}, {"smiles": "Cn1cnc2cc(NCc3ccccc3O)ccc21", "values": [{"measurement": "IC50", "setting": "[4]", "result": "93.9 µM (active)"}]}, {"smiles": "O=C(NC1CC1)c1ccc(-c2nc3ccccc3s2)s1", "values": [{"measurement": "EC50", "setting": "[1]", "result": "4.13 µM (active)"}, {"measurement": "EC50", "setting": "[2]", "result": "7.52 µM (active)"}, {"measurement": "EC50", "setting": "[3]", "result": "13.6 µM (inconclusive)"}]}, {"smiles": "Cc1ccc(S(=O)(=O)[N-]C2=C([n+]3ccn(CCC(C)C)c3)C(=O)c3ccccc3C2=O)cc1", "values": [{"measurement": "AC50", "setting": "INS1", "result": "5.8 µM (active)"}]}, {"smiles": "O=c1c2sc3ccccc3c2[nH]c(=S)n1CCN1CCOCC1", "values": [{"measurement": "IC50", "setting": "[4]", "result": "91.3 µM (active)"}]}, {"smiles": "CCC1CSC(Nc2ccc(C(=O)/C=C/c3ccc(Br)cc3)cc2)=N1", "note": "(stereo unspecified)", "values": [{"measurement": "AC50", "setting": "[6]", "result": "2 µM (active)"}]}, {"smiles": "Cc1n[nH]c(C)c1CCCOc1ccccc1", "values": [{"measurement": "EC50", "setting": "[7]", "result": "> 150 µM (not active)"}, {"measurement": "EC50", "setting": "Streptokinase A", "result": "> 150 µM (not active)"}, {"measurement": "EC50", "setting": "Streptococcus", "result": "> 150 µM (not active)"}]}, {"smiles": "COc1ccc(CCNCCN2CCOCC2)cc1", "values": [{"measurement": "IC50", "setting": "[4]", "result": "77.1 µM (active)"}]}, {"smiles": "CCN1CCN(C(=O)c2ccc(CSc3ccc(C)cc3)cc2)CC1", "values": [{"measurement": "EC50", "setting": "[8]", "result": "> 150 µM (inactive)"}, {"measurement": "AC50", "setting": "[6]", "result": "< 0.16 µM (active)"}]}, {"smiles": "Cc1c(C(=O)NCc2ccc3c(c2)OCO3)oc2ccc(S(=O)(=O)N3CCCCCC3)cc12", "values": [{"measurement": "EC50", "setting": "[1]", "result": "14.9 µM (active)"}, {"measurement": "EC50", "setting": "[2]", "result": "15 µM (active)"}, {"measurement": "EC50", "setting": "[3]", "result": "25.5 µM (active)"}, {"measurement": "EC50", "setting": "[9]", "result": "0.775 µM (active)"}, {"measurement": "EC50", "setting": "[10]", "result": "> 60 µM (not active)"}]}, {"smiles": "CN(C)N1C(N)=C(C#N)C(c2cccc3ccccc23)C2=C1CC(c1ccccc1)CC2=O", "note": "(stereo unspecified)", "values": [{"measurement": "AC50", "setting": "[6]", "result": "1.15 µM (active)"}]}, {"smiles": "Cc1ccccc1-[n+]1c(-c2ccccc2)cc(-c2ccccc2)cc1-c1ccccc1.[O-][Cl+3]([O-])([O-])[O-]", "values": [{"measurement": "EC50", "setting": "[8]", "result": "36.3 µM (active)"}, {"measurement": "EC50", "setting": "[11]", "result": "0.21 µM (active)"}, {"measurement": "AC50", "setting": "INS1", "result": "2.26 µM (active)"}]}, {"smiles": "CN(Cc1c(F)cccc1Cl)C(=O)c1cc2ccccc2o1", "values": [{"measurement": "AC50", "setting": "INS1", "result": "> 260 µM (inactive)"}]}, {"smiles": "CCOc1ccccc1CN1CCC(N2CCOCC2)CC1", "values": [{"measurement": "IC50", "setting": "[4]", "result": "83 µM (active)"}]}, {"smiles": "C=CC[n+]1c(/C=C/c2ccc(OC(C)=O)c(OC)c2)ccc2ccccc21", "values": [{"measurement": "IC50", "setting": "[4]", "result": "61.2 µM (active)"}]}]}
